Assay in all cases: TGFα-shedding assay-based GPCR screening with chimeric Gα subunit proteins
Assay type in all cases: cell-based
Conditions in all cases: 10µM, Favipiravir 100μM

For assay [1], the target named is T1, 348 GPCRs (Homo sapiens, UniProt P21452).
T1 construct: expressed in transfected cells; host or cells: HEK293A
T1 sequence (P21452 1-398): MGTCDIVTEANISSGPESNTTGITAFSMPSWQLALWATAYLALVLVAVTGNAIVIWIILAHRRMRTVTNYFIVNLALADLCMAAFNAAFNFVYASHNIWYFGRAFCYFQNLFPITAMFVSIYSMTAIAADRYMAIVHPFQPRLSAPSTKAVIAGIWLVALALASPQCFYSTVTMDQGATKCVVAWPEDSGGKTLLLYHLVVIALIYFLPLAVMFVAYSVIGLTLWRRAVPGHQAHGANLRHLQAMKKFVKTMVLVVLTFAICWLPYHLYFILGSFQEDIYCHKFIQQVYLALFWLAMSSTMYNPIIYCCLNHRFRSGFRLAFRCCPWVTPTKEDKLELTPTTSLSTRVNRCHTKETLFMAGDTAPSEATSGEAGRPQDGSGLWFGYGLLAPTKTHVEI

Assay [2] has as its target T2, 348 GPCRs (Homo sapiens, UniProt P23945).
T2 construct: expressed in transfected cells; host or cells: HEK293A
T2 sequence (P23945 18-695): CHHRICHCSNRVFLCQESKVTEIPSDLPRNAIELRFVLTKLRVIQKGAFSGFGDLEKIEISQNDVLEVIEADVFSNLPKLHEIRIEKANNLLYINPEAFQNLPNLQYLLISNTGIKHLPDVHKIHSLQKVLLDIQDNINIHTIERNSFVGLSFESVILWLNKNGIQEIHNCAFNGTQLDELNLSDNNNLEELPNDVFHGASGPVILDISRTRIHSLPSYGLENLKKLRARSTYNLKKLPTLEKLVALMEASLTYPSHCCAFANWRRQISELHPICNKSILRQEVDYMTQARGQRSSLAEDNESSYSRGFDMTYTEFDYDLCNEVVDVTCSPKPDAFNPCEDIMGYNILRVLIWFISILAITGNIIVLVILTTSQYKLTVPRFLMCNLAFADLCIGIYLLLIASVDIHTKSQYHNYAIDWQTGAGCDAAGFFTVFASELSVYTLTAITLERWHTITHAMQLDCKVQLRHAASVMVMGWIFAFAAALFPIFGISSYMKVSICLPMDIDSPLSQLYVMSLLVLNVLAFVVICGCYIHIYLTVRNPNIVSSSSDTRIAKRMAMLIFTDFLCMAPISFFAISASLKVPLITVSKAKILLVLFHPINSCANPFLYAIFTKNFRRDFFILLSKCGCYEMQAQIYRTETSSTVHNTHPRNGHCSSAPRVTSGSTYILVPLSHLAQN

Assay [3] has as its target T3, 348 GPCRs (Homo sapiens, UniProt P25101).
T3 construct: expressed in transfected cells; host or cells: HEK293A
T3 sequence (P25101 21-427): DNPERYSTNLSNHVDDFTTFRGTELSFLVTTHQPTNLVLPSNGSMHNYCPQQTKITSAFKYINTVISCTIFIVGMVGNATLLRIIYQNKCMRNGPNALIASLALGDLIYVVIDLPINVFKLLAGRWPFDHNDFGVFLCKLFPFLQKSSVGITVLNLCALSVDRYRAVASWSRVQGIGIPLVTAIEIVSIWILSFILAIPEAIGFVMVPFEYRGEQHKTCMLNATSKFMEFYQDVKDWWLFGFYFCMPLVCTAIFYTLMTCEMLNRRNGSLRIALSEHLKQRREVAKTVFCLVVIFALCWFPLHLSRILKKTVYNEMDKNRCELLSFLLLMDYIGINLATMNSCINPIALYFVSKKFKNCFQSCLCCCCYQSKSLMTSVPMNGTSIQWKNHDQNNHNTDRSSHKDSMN

Assay [4] deals with T4, 348 GPCRs (Homo sapiens, UniProt P46089).
T4 construct: expressed in transfected cells; host or cells: HEK293A

Assay [5] has as its target T5, 348 GPCRs (Homo sapiens, UniProt P48544).
T5 construct: expressed in transfected cells; host or cells: HEK293A
T5 sequence (P48544 1-419): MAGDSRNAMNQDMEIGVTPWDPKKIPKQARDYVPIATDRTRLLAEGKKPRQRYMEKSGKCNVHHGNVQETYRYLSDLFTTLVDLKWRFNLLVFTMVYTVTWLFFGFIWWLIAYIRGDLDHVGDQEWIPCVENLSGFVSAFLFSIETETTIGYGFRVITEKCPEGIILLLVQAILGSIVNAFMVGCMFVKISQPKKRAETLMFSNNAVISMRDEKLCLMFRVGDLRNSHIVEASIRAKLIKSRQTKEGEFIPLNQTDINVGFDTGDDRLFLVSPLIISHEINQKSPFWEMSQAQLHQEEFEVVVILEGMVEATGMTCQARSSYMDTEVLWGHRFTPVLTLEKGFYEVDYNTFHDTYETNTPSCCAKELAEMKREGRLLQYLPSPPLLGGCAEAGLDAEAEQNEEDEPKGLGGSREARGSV

In assay [6] the target is T6, 348 GPCRs (Homo sapiens, UniProt P49685).
T6 sequence (P49685 1-360): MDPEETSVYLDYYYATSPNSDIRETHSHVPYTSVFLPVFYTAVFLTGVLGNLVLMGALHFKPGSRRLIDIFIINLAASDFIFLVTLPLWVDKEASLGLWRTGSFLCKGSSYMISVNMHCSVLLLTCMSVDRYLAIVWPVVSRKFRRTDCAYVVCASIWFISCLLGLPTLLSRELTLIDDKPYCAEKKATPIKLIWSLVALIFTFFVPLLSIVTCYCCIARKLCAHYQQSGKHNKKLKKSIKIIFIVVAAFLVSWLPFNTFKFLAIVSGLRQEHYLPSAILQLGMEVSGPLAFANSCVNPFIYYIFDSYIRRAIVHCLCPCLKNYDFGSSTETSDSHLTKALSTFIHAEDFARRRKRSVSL

The target in assay [7] is T7, 348 GPCRs (Homo sapiens, UniProt Q7Z602).
T7 construct: expressed in transfected cells; host or cells: HEK293A

Where [8] appears, read: read-out: % GPCR activation compared to TPA, NK2 (tachykinin receptor 2).
Setting [9] is: read-out: % GPCR activation compared to TPA, FSHR (follicle stimulating hormone receptor).
[10] abbreviates: read-out: % GPCR activation compared to TPA, EDNRA (endothelin receptor type A).
The mark [11] stands for this setting: read-out: % GPCR activation compared to TPA, GPR3 (G protein-coupled receptor 3).
Where [12] appears, read: read-out: % GPCR activation compared to TPA, KCNJ5 (potassium inwardly rectifying channel, subfamily J, member 5).
Where [13] appears, read: read-out: % GPCR activation compared to TPA, GPR15 (G protein-coupled receptor 15).
Where [14] appears, read: read-out: % GPCR activation compared to TPA, GPR141 (G Protein-Coupled Receptor 141).
[15] abbreviates: NK2 (tachykinin receptor 2), read-out: % GPCR activation compared to TPA.
The mark [16] stands for this setting: FSHR (follicle stimulating hormone receptor), read-out: % GPCR activation compared to TPA.
The mark [17] stands for this setting: EDNRA (endothelin receptor type A), read-out: % GPCR activation compared to TPA.
Setting [18] is: GPR3 (G protein-coupled receptor 3), read-out: % GPCR activation compared to TPA.
Setting [19] is: KCNJ5 (potassium inwardly rectifying channel, subfamily J, member 5), read-out: % GPCR activation compared to TPA.
Where [20] appears, read: GPR15 (G protein-coupled receptor 15), read-out: % GPCR activation compared to TPA.
Setting [21] is: GPR141 (G Protein-Coupled Receptor 141), read-out: % GPCR activation compared to TPA.

For five molecules, activation results are on record in article PMC10175918 (Communications Biology, 2023).

Where two headings read alike, the source gives them in different places.

T7 sequence (Q7Z602 whole entry): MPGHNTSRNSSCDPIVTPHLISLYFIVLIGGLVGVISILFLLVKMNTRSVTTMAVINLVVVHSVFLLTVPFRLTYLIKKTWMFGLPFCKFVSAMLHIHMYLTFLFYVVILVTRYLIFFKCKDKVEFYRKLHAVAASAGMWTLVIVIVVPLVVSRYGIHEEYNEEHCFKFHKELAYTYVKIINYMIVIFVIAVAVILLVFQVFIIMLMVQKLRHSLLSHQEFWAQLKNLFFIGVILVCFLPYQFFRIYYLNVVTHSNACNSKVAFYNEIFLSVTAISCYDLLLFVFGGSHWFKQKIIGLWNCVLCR
T4 sequence (P46089 whole entry): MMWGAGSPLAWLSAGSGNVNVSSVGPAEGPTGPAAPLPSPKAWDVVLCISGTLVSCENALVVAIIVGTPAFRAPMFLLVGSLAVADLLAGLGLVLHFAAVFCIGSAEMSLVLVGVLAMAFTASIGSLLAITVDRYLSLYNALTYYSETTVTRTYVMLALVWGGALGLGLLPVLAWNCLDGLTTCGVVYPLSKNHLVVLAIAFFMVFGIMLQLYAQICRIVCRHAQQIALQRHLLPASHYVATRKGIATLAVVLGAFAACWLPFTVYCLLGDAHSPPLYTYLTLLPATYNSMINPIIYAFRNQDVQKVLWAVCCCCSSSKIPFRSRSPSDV

For `CC(C)OC(=O)[C@H](C)N[P@](=O)(OC[C@H]1O[C@@H](n2ccc(=O)[nH]c2=O)[C@](C)(F)[C@@H]1O)Oc1ccccc1` [sofosbuvir], in assay [1] (setting [8]), the activation at 10 µM is -3.34%. Moreover, the activation at 100 µM in assay [2] (setting [9]) is 2.02%; in assay [3] (setting [10]) it was 2.91%; in assay [4] (setting [11]) it was -0.512%; in assay [5] (setting [12]), -2.66%; in assay [6] (setting [13]), -12.9%; in assay [7] (setting [14]), -0.925%.

`NC(=O)c1nc(F)cnc1O` [favipiravir, 6-fluoro-3-hydroxy-2-pyrazinecarboxamide]: the activation at 10 µM in assay [1] (setting [15]) turned out to be 1.15%. For the same molecule, the activation at 100 µM in assay [2] (setting [16]) was 3.61%; in assay [3] (setting [17]), 0.818%; in assay [4] (setting [18]) it was 3.58%; in assay [5] (setting [19]), -1.78%; in assay [6] (setting [20]) it was 1.23%; in assay [7] (setting [21]) it was -0.646%.

Regarding `CCC(CC)COC(=O)[C@H](C)N[P@](=O)(OC[C@H]1O[C@@](C#N)(c2ccc3c(N)ncnn23)[C@H](O)[C@@H]1O)Oc1ccccc1` [remdesivir], the activation at 10 µM in assay [1] (setting [8]) was 1.32%. For the same molecule, the activation at 100 µM in assay [2] (setting [9]) was 2.23%; in assay [3] (setting [10]), -0.597%; in assay [4] (setting [11]), 9.85%; in assay [5] (setting [12]), 1.55%; in assay [6] (setting [13]), -0.0536%; in assay [7] (setting [14]) it was -1.45%.

As to `N#C[C@@]1(c2ccc3c(N)ncnn23)O[C@H](CO)[C@@H](O)[C@H]1O` [GS441524], the activation at 10 µM in assay [1] (setting [15]) amounted to 0.00909%. Also, the activation at 100 µM in assay [2] (setting [16]) was 1.25%; in assay [3] (setting [17]), 2.17%; in assay [4] (setting [18]) it was 7.48%; in assay [5] (setting [19]), 1.89%; in assay [6] (setting [20]), -0.752%; in assay [7] (setting [21]), -0.309%.

With `CC(C)C(=O)OC[C@H]1O[C@@H](n2ccc(NO)nc2=O)[C@H](O)[C@@H]1O` [molnupiravir], the activation at 10 µM in assay [1] (setting [15]) is -2.23%. The activation at 100 µM was 0.229% in assay [2] (setting [16]); 0.536% in assay [3] (setting [17]); -0.728% in assay [4] (setting [18]); -0.841% in assay [5] (setting [19]); -0.0279% in assay [6] (setting [20]); -1.57% in assay [7] (setting [21]).
